The values that follow come from patent publication US20070066516A1, “Compounds comprising cyclized somatostatin receptor binding peptides” (priority 2005, published 2007).

Assay [1] concerns the target SSTR2 (Homo sapiens, UniProt P30874). Kind of assay: Radioligand binding assay on membranes of CHO-K1 cells expressing SSTR2. The note with it: membranes from CHO-K1 cells stably expressing cloned somatostatin receptor 2. As to the method: (§1) Radiolabeling binding assays were carried out as described in the prior art like, e.g. in Gazal S. et al (2002) J. Med. Chem. 45: 1665-1671. The radioligand binding assays were carried out on membranes prepared from CHO-K1 cells stably expressing individually cloned somatostatin receptors 2 or 5 (SSTR2 or SSTR5). Cells were grown for 2 days for almost confluence and were washed and scraped into 50 mM ice-cold Tris-HCl, pH 7.8, containing 1 mM EGTA, 5 mM MgCl2, […], 0.1 mM PMSF, and 0.5 mg/mL aprotinin (buffer A) and were centrifuged at 10,000 rpm for 10 min at 4° C. (in Sorvall RC 26 Plus ultracentrifuge, rotor SS-34). The pellet was resuspended in buffer A and homogenized with a Polytron PT 1200 homogenizer (Kinematica AG, Switzerland) (setting 2, 3 strokes 10 s each). The homogenate was then centrifuged at 20 000 rpm for 20 min at 4° C. The pellet was resuspended in buffer A and homogenized using the Polytron homogenizer (setting 2, 3 strokes 5 s each). The protein content was determined by Bradford, and the membrane preparation was diluted in buffer A containing 1 mg/mL bovine serum albumin (BSA) to a final 0.2 or 0.4 mg/mL membrane protein (depending on the specific somatostatin receptor used).
(§2) The radioligand binding assay was performed in 96 well microtiter plates (Maxisorp plates, Nunc, Denmark). Cell membranes ([…] protein) were incubated with the various cyclized peptides indicated in Table 1 & 2, which comprised a lanthanide chelation unit, in a final volume of 250 μL, for 45 min. at room temperature in the presence or absence of competing peptides. Nonspecific binding was defined as the radioactivity remaining bound in the presence of […] somatostatin. At the end of the binding, reaction free radioligand was separated from bound Ligand by rapid filtration through UniFilter GF/C plates preincubated in a solution of 5 g/L polyethyleneimine and 1 g/L BSA. The filtration was performed in Filter-Mate Cell Harvester (Packard Instrument Company, U.S.A.). After filtration, the filters were washed several times with cold buffer A containing 1 mg/mL BSA and allowed to dry overnight at room temperature. Then, bound radioactivity was counted. The binding assays were performed in triplicate wells. Data from radioligand binding were used to generate inhibition curves, and IC50 values were determined for each of the tested peptides. The saturation binding data were analyzed by the method of Scatchard, and IC50 values are expressed as mean±SEM (standard error of the mean).

Assay [2] deals with SSTR5 (Homo sapiens, UniProt P35346). The assay can be described thus: Radioligand binding assay on membranes of CHO-K1 cells expressing SSTR5. Particulars: for IC50: membranes from CHO-K1 cells stably expressing cloned somatostatin receptor 5; for Ratio 2/5 in %: ratio of IC50 SSTR2 / IC50 SSTR5 in %. As to the method: as §1, §2
Chain of SSTR5 (P35346 whole entry): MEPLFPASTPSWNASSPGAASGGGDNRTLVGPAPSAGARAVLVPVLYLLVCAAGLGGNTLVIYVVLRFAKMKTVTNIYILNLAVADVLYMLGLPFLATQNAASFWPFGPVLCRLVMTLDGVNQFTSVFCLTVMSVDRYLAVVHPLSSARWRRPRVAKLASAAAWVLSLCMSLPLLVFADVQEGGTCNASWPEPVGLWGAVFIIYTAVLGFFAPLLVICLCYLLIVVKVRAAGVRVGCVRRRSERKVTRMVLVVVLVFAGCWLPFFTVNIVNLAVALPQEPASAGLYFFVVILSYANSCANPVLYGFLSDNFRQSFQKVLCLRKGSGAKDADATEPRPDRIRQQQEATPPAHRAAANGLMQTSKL
In assay [3] the target is T1, somatostatin receptor 5 (UniProt P35346 1-364, limits assumed).
T1 construct: whole, on cells; Assayed as membrane preparation of CHO-K1 cells stably expressing the cloned receptor; also called SSTR5; somatostatin receptor subtype 5
T1 sequence (P35346 whole entry): as above
Kind of assay: ratio of IC50 on SSTR2 to IC50 on SSTR5 (reference SSTR2), radioligand competition binding on CHO-K1 membranes.

In general, IC50 refers to the concentration needed to halve the response being measured. Low readings indicate higher potency, high ones lower potency.

Where a SMILES comes first, the peptide text is derived from it. Side-chain parts run from the residue outwards. [ ]: non-standard residue; d: D form. The star is where a group is joined. X1 = CC(C(=O)*)N1CCN(CC(=O)O)CCN(CC(=O)O)CCN(CC(=O)O)CC1; Tpi = O=C(O)[C@@H]1Cc2c([nH]c3ccccc23)CN1; Dip = N[C@H](C(=O)O)C(c1ccccc1)c1ccccc1; Phe(4-F) = N[C@@H](Cc1ccc(F)cc1)C(=O)O; 1Nal = N[C@@H](Cc1cccc2ccccc12)C(=O)O; 2Nal = N[C@@H](Cc1ccc2ccccc2c1)C(=O)O; Ala(cPr) = N[C@@H](CC1CC1)C(=O)O; NMeF = CN[C@@H](Cc1ccccc1)C(=O)O; 4Pal = N[C@@H](Cc1ccncc1)C(=O)O; Thz = O=C(O)[C@@H]1CSCN1; Dap = NC[C@H](N)C(=O)O

Chain of SSTR2 (P30874 whole entry): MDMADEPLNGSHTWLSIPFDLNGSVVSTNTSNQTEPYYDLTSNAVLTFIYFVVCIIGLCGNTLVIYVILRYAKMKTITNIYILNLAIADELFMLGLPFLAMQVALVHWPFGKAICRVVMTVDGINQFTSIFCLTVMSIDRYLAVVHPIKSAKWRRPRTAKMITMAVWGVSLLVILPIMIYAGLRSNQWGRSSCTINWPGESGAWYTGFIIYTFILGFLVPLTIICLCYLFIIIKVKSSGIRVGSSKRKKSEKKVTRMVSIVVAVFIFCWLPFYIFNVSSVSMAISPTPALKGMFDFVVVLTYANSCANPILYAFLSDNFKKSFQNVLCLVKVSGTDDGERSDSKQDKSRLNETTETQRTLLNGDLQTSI

Turning to `C[C@@H](O)[C@@H]1NC(=O)[C@H](CCCCN)NC(=O)[C@@H](Cc2c[nH]c3ccccc23)NC(=O)[C@H](Cc2ccc(O)cc2)NC(=O)[C@H](CCS)N(C)C(=O)[C@H](Cc2ccccc2)NC1=O` [P1839, cyclo[Tyr-DTrp-Lys-Thr-Phe-(NMe)hCys], reference compound], the IC50 in assay [1] worked out at 0.032 nM; in assay [2], 22 nM. Besides, the “Ratio 2/5 in %” value in assay [2] stood at 0.15%.

In assay [1], `CSCC[C@@H]1NC(=O)[C@H]([C@@H](C)O)NC(=O)[C@H](CCCCN)NC(=O)[C@@H](Cc2c[nH]c3ccccc23)NC(=O)[C@H](Cc2ccc(O)cc2)NC(=O)[C@H](Cc2ccccc2)N(C)C1=O` [P2265, cyclo[Tyr-DTrp-Lys-Thr-Met-(NMe)Phe]] (cyclo(Y[dW]KTM[NMeF])) came in with an IC50 of 0.139 nM. In assay [2], the IC50 was found to be 11.6 nM and the “Ratio 2/5 in %” value worked out at 1.2%.

In the case of `CSCC[C@@H]1NC(=O)[C@H](C(C)C)NC(=O)[C@H](CCCCN)NC(=O)[C@@H](Cc2c[nH]c3ccccc23)NC(=O)[C@H](Cc2ccc(O)cc2)NC(=O)[C@H](Cc2ccccc2)N(C)C1=O` [P2266, cyclo[Tyr-DTrp-Lys-Val-Met-(NMe)Phe]] (cyclo(Y[dW]KVM[NMeF])), the results for the IC50 in assay [1] and in assay [2] were 0.256 nM and 8.12 nM, respectively. Also, the “Ratio 2/5 in %” value in assay [2] was 3.2%.

Regarding `CSCC[C@@H]1NC(=O)[C@H](CN)NC(=O)[C@H](CCCCN)NC(=O)[C@@H](Cc2c[nH]c3ccccc23)NC(=O)[C@H](Cc2ccc(O)cc2)NC(=O)[C@H](Cc2ccccc2)N(C)C1=O` [P2267, cyclo[Tyr-DTrp-Lys-Dpr-Met-(NMe)Phe]] (cyclo(Y[dW]K[Dap]M[NMeF])), the “Ratio 2/5 in %” value in assay [2] was found to be 1.9%.

As for `CSCC[C@@H]1NC(=O)[C@H]([C@@H](C)O)NC(=O)[C@H](CCCCN)NC(=O)[C@@H](Cc2c[nH]c3ccccc23)NC(=O)[C@H](Cc2ccc(O)cc2)NC(=O)[C@@H]2Cc3c([nH]c4ccccc34)CN2C1=O` [P2274, cyclo[Tyr-DTrp-Lys-Thr-Met-Tpi]] (cyclo(Y[dW]KTM[Tpi])), in assay [2], the “Ratio 2/5 in %” value was 6.1%.

In assay [1], `CSCC[C@@H]1NC(=O)[C@H]([C@@H](C)O)NC(=O)[C@H](CCCCN)NC(=O)[C@@H](Cc2c[nH]c3ccccc23)NC(=O)[C@H](Cc2cccc3ccccc23)NC(=O)[C@H](Cc2ccccc2)N(C)C1=O` [P2278, cyclo[(1)Nal-DTrp-Lys-Thr-Met-(NMe)Phe]] (cyclo([1Nal][dW]KTM[NMeF])) yielded an IC50 of 0.444 nM. In assay [2], the IC50 was found to be 1.59 nM and the “Ratio 2/5 in %” value is listed as 27.9%.

In assay [1], `CSCC[C@@H]1NC(=O)[C@H]([C@@H](C)O)NC(=O)[C@H](CCCCN)NC(=O)[C@@H](Cc2c[nH]c3ccccc23)NC(=O)[C@H](Cc2ccc3ccccc3c2)NC(=O)[C@H](Cc2ccccc2)N(C)C1=O` [P2279, cyclo[2Nal-Dtrp-Lys-Thr-Met-(N-Me)Phe]] (cyclo([2Nal][dW]KTM[NMeF])) had an IC50 of 5.58 nM. Further, in assay [2], the 50% inhibitory concentration (IC50) stood at 15 nM and the “Ratio 2/5 in %” value is 37.2%.

Turning to `CSCC[C@@H]1NC(=O)[C@H]([C@@H](C)O)NC(=O)[C@H](CCCCN)NC(=O)[C@@H](Cc2c[nH]c3ccccc23)NC(=O)[C@H](Cc2ccncc2)NC(=O)[C@H](Cc2ccccc2)N(C)C1=O` [P2281, cyclo[(4)Pal-DTrp-Lys-Thr-Met-(NMe)Phe]] (cyclo([4Pal][dW]KTM[NMeF])), the IC50 in assay [1] stood at 0.154 nM; in assay [2], 43.3 nM. Besides, the “Ratio 2/5 in %” value in assay [2] is on record as 0.36%.

Regarding `CSCC[C@@H]1NC(=O)[C@H]([C@@H](C)O)NC(=O)[C@H](CCCCN)NC(=O)[C@@H](Cc2c[nH]c3ccccc23)NC(=O)[C@H](Cc2ccc(F)cc2)NC(=O)[C@H](Cc2ccccc2)N(C)C1=O` [P2292, cyclo[Phe(4-F)-DTrp-Lys-Thr-Met-(N-Me)Phe]] (cyclo([Phe(4-F)][dW]KTM[NMeF])), in assay [1], the IC50 was determined as 0.152 nM. In assay [2], the IC50 turned out to be 7.61 nM and the “Ratio 2/5 in %” value is reported as 2.0%.

For `CSCC[C@@H]1NC(=O)[C@H](CC2CC2)NC(=O)[C@H](CCCCN)NC(=O)[C@@H](Cc2c[nH]c3ccccc23)NC(=O)[C@H](Cc2ccc(O)cc2)NC(=O)[C@H](Cc2ccccc2)N(C)C1=O` [P2300, cyclo[Tyr-DTrp-Lys-BAla(cyclopropyl)-Met-(N-Me)Phe]] (cyclo([Ala(cPr)]M[NMeF]Y[dW]K)), the “Ratio 2/5 in %” value in assay [2] amounted to 0.96%.

For the molecule `CC(C(=O)NCC(=O)NCCCC[C@@H]1NC(=O)[C@H]([C@@H](C)O)NC(=O)[C@H](CCCCN)NC(=O)[C@@H](Cc2c[nH]c3ccccc23)NC(=O)[C@H](Cc2cccc3ccccc23)NC(=O)[C@H](Cc2ccccc2)N(C)C1=O)N1CCN(CC(=O)O)CCN(CC(=O)O)CCN(CC(=O)O)CC1` (stereo partly drawn) [P2323, cyclo[1Nal-DTrp-Lys-Thr-Lys(GlyMeDOTA)-(N-Me)Phe]] (cyclo([1Nal][dW]KTK([Gly-X1])[NMeF])), in assay [2], the “Ratio 2/5 in %” value worked out at 399.1%.

B1: P2265 (peptide)
peptide: cyclo(Y[dW]KTM[NMeF])
SMILES: CSCC[C@@H]1NC(=O)[C@H]([C@@H](C)O)NC(=O)[C@H](CCCCN)NC(=O)[C@@H](Cc2c[nH]c3ccccc23)NC(=O)[C@H](Cc2ccc(O)cc2)NC(=O)[C@H](Cc2ccccc2)N(C)C1=O
notes: Cyclic hexapeptide; also called cyclo[Tyr-DTrp-Lys-Thr-Met-(NMe)Phe]
In the case of B1, the “Ratio 2/5 in %” value in assay [3] came to 1.2%.

B2: P2266 (peptide)
peptide: cyclo(Y[dW]KVM[NMeF])
SMILES: CSCC[C@@H]1NC(=O)[C@H](C(C)C)NC(=O)[C@H](CCCCN)NC(=O)[C@@H](Cc2c[nH]c3ccccc23)NC(=O)[C@H](Cc2ccc(O)cc2)NC(=O)[C@H](Cc2ccccc2)N(C)C1=O
notes: Cyclic hexapeptide; also called cyclo[Tyr-DTrp-Lys-Val-Met-(NMe)Phe]
Consider B2, for which the “Ratio 2/5 in %” value in assay [3] was 3.2%.

B3: P2326 (peptide)
peptide: cyclo([Dip][dW]KTM[NMeF])
SMILES: CSCC[C@@H]1NC(=O)[C@H]([C@@H](C)O)NC(=O)[C@H](CCCCN)NC(=O)[C@@H](Cc2c[nH]c3ccccc23)NC(=O)[C@H](C(c2ccccc2)c2ccccc2)NC(=O)[C@H](Cc2ccccc2)N(C)C1=O
notes: Cyclic hexapeptide; also called cyclo[DiphenylAla-DTrp-Lys-Thr-Met-(N-Me)Phe]
Turning to B3, the “Ratio 2/5 in %” value in assay [3] worked out at 0.42%.

B4: P2292 (peptide)
peptide: cyclo([Phe(4-F)][dW]KTM[NMeF])
SMILES: CSCC[C@@H]1NC(=O)[C@H]([C@@H](C)O)NC(=O)[C@H](CCCCN)NC(=O)[C@@H](Cc2c[nH]c3ccccc23)NC(=O)[C@H](Cc2ccc(F)cc2)NC(=O)[C@H](Cc2ccccc2)N(C)C1=O
notes: Cyclic hexapeptide; also called cyclo[Phe(4-F)-DTrp-Lys-Thr-Met-(N-Me)Phe]
B4: the “Ratio 2/5 in %” value in assay [3] is 2%.

B5: P2297 (peptide)
peptide: cyclo([Thz][dW]KTMF)
SMILES: CSCC[C@@H]1NC(=O)[C@H]([C@@H](C)O)NC(=O)[C@H](CCCCN)NC(=O)[C@@H](Cc2c[nH]c3ccccc23)NC(=O)[C@@H]2CSCN2C(=O)[C@H](Cc2ccccc2)NC1=O
notes: Cyclic hexapeptide; also called cyclo[ThioPro-DTrp-Lys-Thr-Met-Phe]
Take B5: the “Ratio 2/5 in %” value in assay [3] is 37.1%.

B6: P2281 (peptide)
peptide: cyclo([4Pal][dW]KTM[NMeF])
SMILES: CSCC[C@@H]1NC(=O)[C@H]([C@@H](C)O)NC(=O)[C@H](CCCCN)NC(=O)[C@@H](Cc2c[nH]c3ccccc23)NC(=O)[C@H](Cc2ccncc2)NC(=O)[C@H](Cc2ccccc2)N(C)C1=O
notes: Cyclic hexapeptide; also called cyclo[(4)Pal-DTrp-Lys-Thr-Met-(NMe)Phe]
Take B6: in assay [3], the “Ratio 2/5 in %” value amounted to 0.36%.

B7: P2279 (peptide)
peptide: cyclo([2Nal][dW]KTM[NMeF])
SMILES: CSCC[C@@H]1NC(=O)[C@H]([C@@H](C)O)NC(=O)[C@H](CCCCN)NC(=O)[C@@H](Cc2c[nH]c3ccccc23)NC(=O)[C@H](Cc2ccc3ccccc3c2)NC(=O)[C@H](Cc2ccccc2)N(C)C1=O
notes: Cyclic hexapeptide; also called cyclo[2Nal-Dtrp-Lys-Thr-Met-(N-Me)Phe]
In the case of B7, the “Ratio 2/5 in %” value in assay [3] is 37.2%.

B8: P2278 (peptide)
peptide: cyclo([1Nal][dW]KTM[NMeF])
modifications: also: tested peptides comprised a lanthanide chelation unit, not shown
notes: also called cyclo[(1)Nal-DTrp-Lys-Thr-Met-(NMe)Phe]
As for B8, in assay [3], the “Ratio 2/5 in %” value was determined as 27.9%.

B9: P2329 (peptide)
peptide: cyclo([1Nal][dW]KVM[NMeF])
SMILES: CSCC[C@@H]1NC(=O)[C@H](C(C)C)NC(=O)[C@H](CCCCN)NC(=O)[C@@H](Cc2c[nH]c3ccccc23)NC(=O)[C@H](Cc2cccc3ccccc23)NC(=O)[C@H](Cc2ccccc2)N(C)C1=O
notes: Cyclic hexapeptide; also called cyclo[1Nal-DTrp-Lys-Val-Met-(N-Me)Phe]
With B9, the “Ratio 2/5 in %” value in assay [3] is 10.5%.
